Reference: US20050282755A1, “Compositions having antimicrobial activity and uses thereof” (priority 2004, published 2005)
≈ marks a conversion by molar mass, not a printed value.

Key:
S. dublin (Lane) = test: Broth microdilution assay for MIC, Table 4A; format: cell-based, Salmonella dublin; settings: 3 log or greater reduction in bacterial growth over 16 hours
Procedure: (§1) S. dublin (Lane), S. aureus (Rosenbach), P. acnes, ATCC 6919, E. coli K12 TOP10, and E. coli K12 55099 (protease neg.) bacterial strains were tested in the microbial inhibition assays described hereafter. The S. dublin (Lane), and S. aureus (Rosenbach) strains are available from ATCC (Staphylococcus aureus subsp. aureus Rosenbach (Number: 13150) and Salmonella choleraesuis serotype dublin (Number: 39184)). The strain of P. acnes was purchased from ATCC (strain #6919) (Manassas, Va.). The E. coli K12 strains TOP 10 and 55099 were purchased from Invitrogen (Carlsbad, Calif.) and ATCC respectively. HeLa cells were purchased from ATCC (CCL2). Tryptic soy broth (TSB), Brucella broth, reinforced Clostridial broth and agar were purchased from Becton & Dickinson (distributed by VWR, West Chester, Pa.). All plastic consumables were purchased from VWR (West Chester, Pa.). […]
(§2) The minimum inhibitory concentration (MIC) of peptide compositions for S. aureus, S. dublin and E. coli was determined in a broth microdilution assay. […] The MIC for each peptide for each microorganism was determined by three methods. The growth of bacteria was directly determined by measuring the absorption at 600 nm using a Versamax microplate reader (Molecular Devices). […] After incubation for 16 hours at 37° C. bacterial growth was evaluated and documented (Alpha Innotech gel documentation system).

human red blood cells = format: cell-based; settings: red cells of human, 100 Micromolar
Procedure: Hemoglobin-release assays with human red blood cells (RBC) were performed to determine the hemolytic activity of granulysin peptides. Human RBCs (San Diego Blood Bank, San Diego, Calif.) were washed three times in PBS buffer (8 mM Na2HPO4, 1.5 mM KH2PO4, 140 mM NaCl and 2.7 mM KCl, pH 7.4), resuspended in PBS to the concentration of 5% (v/v). The RBC were then exposed to different peptide compositions at various concentrations (100-6.25 micromolar) and incubated at 37° C. for 60 minutes in a total volume of 120 microliters. Every experiment included a negative control without peptide and maximum control treated with 5% TX-100 for complete hemoglobin release. Samples were centrifuged for 1 minute at 13,000 g to remove debris and intact cells. The hemoglobin-containing supernatant was removed and transferred to a microwell plate. Hemoglobin release was quantified at A540 using a Versamax plate reader (Molecular Devices). The degree of hemolysis is expressed as percentage of hemolysis compared to the […], using the following formula: % hemolysis=(sample−neg. control)/(max. control−neg. control)×100.

P. acnes, ATCC 6919 = test: Broth microdilution assay for P. acnes MBC, Table 4B; format: cell-based, Propionibacterium acnes; settings: 3 log or greater reduction in CFU/milliliter after 2.5 hours
From the text: The strain of P. acnes was purchased from ATCC (strain #6919) (Manassas, Va.). […] HeLa cells were purchased from ATCC (CCL2). Tryptic soy broth (TSB), Brucella broth, reinforced Clostridial broth and agar were purchased from Becton & Dickinson (distributed by VWR, West Chester, Pa.). All plastic consumables were purchased from VWR (West Chester, Pa.). Chemicals were purchased from Sigma Aldrich (St. Louis, Mo.). DMEM, antibiotics and cell culture supplements were purchased from Invitrogen (Carlsbad, Calif.), fetal calf serum (FCS) was purchased from Hyclone (Logan, Utah). […] For propagation in liquid culture individual colonies were inoculated in […] of TSB broth for 16 hours at 37° C. under constant shaking. P. acnes was grown on Brucella broth blood agar plates (supplemented with 5% defibrinated sheep blood, […] hemin and […] vitamin K) under anaerobic conditions (GasPak system, Becton & Dickinson) for 96 hours at 37° C. For propagation in liquid culture individual colonies were inoculated in […] of reinforced Clostridial broth under anaerobic conditions for 72 hours at 37° C. […] The minimum bactericidal concentration (MBC) of peptide compositions for P. acnes was determined in a microdilution assay. […] The appearance of bacterial colonies was evaluated and documented.

S. aureus (Rosenbach) = test: Broth microdilution assay for MIC (20% TSB, 50 mM Na2CO3, 1 mM MgCl2), Table 4A; format: cell-based, Staphylococcus aureus; settings: 3 log or greater reduction in bacterial growth over 16 hours
Procedure: as §1, §2

CSCC[C@@H](NC(=O)[C@@H](Cc1ccccc1)NC(=O)[C@@H](CC(N)=O)NC(=O)[C@@H](CCCNC(=N)N)NC(=O)[C@@H](CO)NC(=O)[C@@H](Cc1c[nH]c2ccccc12)NC(=O)[C@@H](CC(=O)O)NC(=O)[C@@H](CCCNC(=N)N)NC(=O)[C@@H](Cc1c[nH]c2ccccc12)NC(=O)[C@@H](CCCNC(=N)N)NC(=O)[C@@H](CO)NC(=O)[C@@H](CCCNC(=N)N)NC(=O)CNC(=O)[C@H](NC(=O)[C@@H](CCCNC(=N)N)NC(=O)[C@@H](CO)NC(=O)[C@H](NC(=O)[C@@H](CCCNC(=N)N)NC(=O)[C@H](NC(C)=O)[C@H](C)O)C(C)C)[C@H](C)O)C(=O)N[C@H](CCCNC(=N)N)C(=O)N[C@H](C)C(=O)N[C@H](C)C(N)=O [Peptide 30, Ac-trvsrtgrsrwrdwsrnfmraa-NH2]
Minimum inhibitory concentration (MIC) S. dublin (S. dublin (Lane)): 4 µM (≈ 11.2 µg/mL)
Hemolytic effect on human red blood cells (human red blood cells): 0%
Minimum bactericidal concentration (MBC) for P. acnes (P. acnes, ATCC 6919): 8 micromolar units
Minimum inhibitory concentration (MIC) S. aureus (S. aureus (Rosenbach)): 8 µM (≈ 22.4 µg/mL)
